Laboratory results published in patent publication US20100273748A1, “ANTIMICROBIAL THERAPY” (priority 2006, published 2010).

Key:
CYP24A1 = experiment: qPCR of CYP24A1 mRNA in cultured keratinocytes; assay type: cell-based, human; conditions: 1,25D3 10^−8M, 24 hours
Method: Cell culture and stimuli. Human keratinocytes were grown in serum-free EpiLife® cell culture media (Cascade Biologics; Portland, Oreg.) containing 0.06 mM Ca2+ and 1× EpiLife® defined growth supplement (EDGS) at 37° C. under standard tissue culture conditions. Stock cultures were maintained for up to five passages in this media with the addition of 50 U/mL penicillin and 50 μg/mL streptomycin. HaCaT keratinocytes were cultured in DMEM (Sigma, St. Louis, Mo.) with 10% FCS. Cells at 50-70% confluence were stimulated in fresh medium after preincubation with 1,25(OH)2 vitamin D3 (1,25D3; 0.1-100 nM, 4-24 h; Sigma). Alternatively, NHEK were stimulated in the presence of 1,25D3 (0.1-100 nM). […]
Real-time RT-PCR (qPCR). […] Expression of cathelicidin and GAPDH was analysed by real-time RT-PCR. […] Fold induction relative to the vehicle treated control in in vitro experiments was calculated using the comparative Ct method, where ΔΔCt is ΔCt(stimulant)-ΔCt(vehicle), ΔCt is Ct(gene)-Ct(GAPDH) and Ct is the cycle at which an arbitrary detection threshold is crossed. For quantification of transcript abundance in tissue samples target gene expression was normalized to GAPDH and compared to non-treated or non-injured skin.

CD14 = experiment: qPCR in differentiated epidermal constructs; assay type: cell-based, human; conditions: 1,25D3 100 nM
Method: (§1) Organotypic culture. Epiderm™ human skin-like tissue constructs were obtained from MatTek (Ashland, Mass.) and cultured according to manufacturer's instructions. Skin constructs were cultured in maintenance media (EPI-100-MM, MatTek) and stimulated with Malp-2 (0.1 μg/ml) for 24 hours in the presence of 1,25D3 (100 nM). Skin constructs were cut after stimulation and transferred to Trizol® (Invitrogen, Carlsbad, Calif.) for RNA extraction or immediately frozen in Tissue-Tek® (Sakura, Torrance, Calif.) for immunostaining.
(§2) Real-time RT-PCR (qPCR). RNA was extracted from cells, epidermal constructs or tissue using Trizol® and 1 μg RNA was reverse transcribed using iScript® (BioRad, Hercules, Calif.). Expression of cathelicidin and GAPDH was analysed by real-time RT-PCR. […] Fold induction relative to the vehicle treated control in in vitro experiments was calculated using the comparative Ct method, where ΔΔCt is ΔCt(stimulant)-ΔCt(vehicle), ΔCt is Ct(gene)-Ct(GAPDH) and Ct is the cycle at which an arbitrary detection threshold is crossed. For quantification of transcript abundance in tissue samples target gene expression was normalized to GAPDH and compared to non-treated or non-injured skin.

TLR2 [1] = experiment: qPCR in differentiated epidermal constructs; assay type: cell-based, human; conditions: 1,25D3 100 nM
Method: as §1, §2

cathelicidin = experiment: Topical treatment of healthy volunteers' skin, cathelicidin expression; assay type: in vivo, human; conditions: topical 1,25D3
Method: (§3) Patients and treatments. Human skin wounds were collected following informed consent by inducing 5 mm full-thickness wounds in volunteers (n=5) under aseptic conditions with local anesthesia as described. At 24 hours after incision, 4 mm punch biopsies were taken from the site of injury and immediately fixed in formalin for immunostaining or frozen in liquid N2 for subsequent RNA isolation. Intact skin from healthy volunteers served as control (n=4). To examine the effects of topical 1,25D3, healthy skin of volunteers (n=7) was treated once topically with 1,25D3 (1.0 mM) and left under occlusion for 4 days. Vehicle treated contralateral skin served as a control. After treatment, skin biopsies were obtained from both sites, fixed in formalin 10% and embedded in paraffin for immunostaining. All treatments and sample acquisitions, including skin biopsies, were approved by the committees on investigations involving human subjects.
(§4) Immunostaining. […] Nuclei were detected with DAPI. After subsequent washings with PBS slides, were mounted in ProLong Anti-Fade reagent (Molecular Probes, Eugene, Oreg.) and evaluated with an Olympus BX41 microscope (Olympus, Melville, N.Y.). […]
(§5) NaOH, pH6.0). […] Sections were washed in PBS and detected with biotinylated secondary antibodies (Vector Laboratories, Burlingame, Calif.) and diaminobenzidine substrate (Sigma) per manufacturers' instructions.

acetylated histone H4 = experiment: Histone H4 acetylation in keratinocytes (immunofluorescence, Western blot); assay type: cell-based, human; conditions: HDACi in the presence of 1,25D3
Method: Panel a; Immunofluorescence staining of acetylated histone H4 protein in NHEK treated with HDACi in the presence or absence of 1,25D3. […] Panel b: Western blot of acetylated histone 4 from keratinocytes treated with the HDACi butyrate or TLR agonists. […] Bar=30 μM.
The abundance of acetylated histone was directly measured to confirm the inhibitory effects of butyrate and TSA on HDACs. […] To determine if changes in histone acetylation occur upon stimulation of keratinocytes with TLR ligands NHEK were stimulated with different TLR ligands and histone acetylation was assessed.

TLR2 [2] = experiment: Topical treatment of healthy volunteers' skin, TLR2 immunostaining; assay type: in vivo, human; conditions: topical 1,25D3 1.0 mM once applied, 4 days, versus vehicle-treated contralateral skin
Method: as §3, §4, §5

C=C1/C(=C\C=C2/CCC[C@]3(C)[C@@H]([C@H](C)CCCC(C)(C)O)CC[C@@H]23)C[C@@H](O)C[C@@H]1O [1,25D3, 1,25(OH)2 vitamin D3]
CYP24A1 transcript abundance (CYP24A1): strongly upregulated
CD14 transcript abundance (CD14): show an increase
TLR2 transcript abundance (TLR2 [1]): show an increase
cathelicidin expression in skin (cathelicidin): increased expression
acetylation of histone H4 (acetylated histone H4): further increased
TLR2 staining intensity in skin sections (TLR2 [2]): Staining intensity increased
